Assay [1] addresses T1, Endothelin receptor type B (Homo sapiens, UniProt P24530).
T1 sequence (P24530 whole entry): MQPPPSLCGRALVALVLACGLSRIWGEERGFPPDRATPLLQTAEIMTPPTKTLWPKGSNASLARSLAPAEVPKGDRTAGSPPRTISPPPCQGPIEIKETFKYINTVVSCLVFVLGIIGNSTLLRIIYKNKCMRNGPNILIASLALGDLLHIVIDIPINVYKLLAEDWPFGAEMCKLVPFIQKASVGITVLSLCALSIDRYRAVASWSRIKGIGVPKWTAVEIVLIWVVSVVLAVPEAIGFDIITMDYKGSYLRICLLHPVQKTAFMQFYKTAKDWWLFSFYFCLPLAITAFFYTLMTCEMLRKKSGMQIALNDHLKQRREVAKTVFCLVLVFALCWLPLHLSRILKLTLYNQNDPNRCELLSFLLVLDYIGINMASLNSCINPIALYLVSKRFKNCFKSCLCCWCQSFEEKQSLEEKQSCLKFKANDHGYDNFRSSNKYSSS
Briefly: Binding affinity in Chinese hamster ovary (CHO) cells stably transfected with human endothelin B (ETB) receptor. Type of assay: cell-based.

In the next assay the target is T2, Endothelin-1 receptor (Homo sapiens, UniProt P25101).
T2 sequence (P25101 whole entry): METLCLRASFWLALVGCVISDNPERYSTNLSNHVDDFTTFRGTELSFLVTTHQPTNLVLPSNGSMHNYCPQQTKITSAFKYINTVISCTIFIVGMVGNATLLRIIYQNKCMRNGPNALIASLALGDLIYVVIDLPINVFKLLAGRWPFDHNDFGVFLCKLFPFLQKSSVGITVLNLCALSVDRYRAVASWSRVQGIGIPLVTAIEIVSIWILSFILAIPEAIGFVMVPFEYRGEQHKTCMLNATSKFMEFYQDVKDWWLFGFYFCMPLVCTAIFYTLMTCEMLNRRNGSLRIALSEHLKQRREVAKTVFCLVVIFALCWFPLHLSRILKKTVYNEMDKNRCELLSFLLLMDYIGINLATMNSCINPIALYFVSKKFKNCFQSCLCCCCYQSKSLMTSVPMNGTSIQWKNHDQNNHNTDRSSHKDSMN
Briefly: Binding affinity in LtK cells stably transfected with human endothelin A (ETA) receptor. It is filed as cell-based.

Starred links: 1 amine or outer side, 2 acyl side, 3 side chain; linkers in the order of their positions; H or OH if unused. Non-standard residues stand in square brackets, D forms with d. Residues, ends and D or L forms follow the SMILES beside them. X1 = O=C([C@@H](N[*:1])C1c2ccccc2CCc2ccccc21)[*:2]

For the compound `C[C@H](NC(=O)[C@@H](NC(=O)CNC(=O)[C@H](Cc1c[nH]cn1)NC(=O)[C@H](Cc1c[nH]c2ccccc12)NC(=O)[C@H](CC(N)=O)NC(=O)CN)[C@@H](C)O)C(=O)N1CCC[C@H]1C(=O)N[C@@H](CC(=O)O)C(=O)N[C@@H](Cc1c[nH]c2ccccc12)C(=O)N[C@@H](Cc1ccccc1)C(=O)N[C@@H](Cc1ccccc1)C(=O)N[C@@H](CC(N)=O)C(=O)N[C@@H](Cc1ccc(O)cc1)C(=O)N[C@@H](Cc1ccc(O)cc1)C(=O)N[C@@H](Cc1c[nH]c2ccccc12)C(=O)O`, the IC50 (in assay [1]; at Endothelin-1 receptor) was over 2.5 µM throughout.
Take `CC(=O)N[C@@H](Cc1c[nH]c2ccccc12)C(=O)N[C@@H](Cc1ccccc1)C(=O)N[C@@H](Cc1ccccc1)C(=O)N[C@@H](CC(N)=O)C(=O)N[C@@H](Cc1ccc(O)cc1)C(=O)N[C@@H](Cc1ccc(O)cc1)C(=O)N[C@@H](Cc1c[nH]c2ccccc12)C(=O)O`: the IC50 (in general, the concentration that gives 50% inhibition) worked out at 7.6 µM in assay [1] and 0.25 µM at Endothelin-1 receptor.
For the compound `CC(=O)N[C@H](Cc1c[nH]c2ccccc12)C(=O)N[C@@H](Cc1ccccc1)C(=O)N[C@@H](Cc1ccccc1)C(=O)N[C@@H](CC(N)=O)C(=O)N[C@@H](Cc1ccc(O)cc1)C(=O)N[C@@H](Cc1ccc(O)cc1)C(=O)N[C@@H](Cc1c[nH]c2ccccc12)C(=O)O`, the results for the half-inhibitory concentration (IC50) (in assay [1]; on Endothelin-1 receptor) were 14 µM and 8.1 µM, respectively.
The matching figures for `CC(=O)N[C@H](C(=O)N[C@@H](Cc1ccccc1)C(=O)N[C@@H](CC(N)=O)C(=O)N[C@@H](Cc1ccc(O)cc1)C(=O)N[C@@H](Cc1ccc(O)cc1)C(=O)N[C@@H](Cc1c[nH]c2ccccc12)C(=O)O)C1c2ccccc2CCc2ccccc21` (Ac-[X1]FNYYW-OH): 4.3 µM and 1.9 µM.
The like results for `NC(=O)C[C@H](NC(=O)[C@H](Cc1ccccc1)NC(=O)[C@@H](N)Cc1ccccc1)C(=O)N[C@@H](Cc1ccc(O)cc1)C(=O)N[C@@H](Cc1ccc(O)cc1)C(=O)N[C@@H](Cc1c[nH]c2ccccc12)C(=O)O` (H-FFNYYW-OH) were, in that order, over 25 µM and over 25 µM.
The like results for `NC(=O)C[C@H](NC(=O)[C@H](Cc1ccccc1)NC(=O)[C@H](Cc1ccccc1)NC(=O)[C@@H](N)Cc1c[nH]c2ccccc12)C(=O)N[C@@H](Cc1ccc(O)cc1)C(=O)N[C@@H](Cc1ccc(O)cc1)C(=O)N[C@@H](Cc1c[nH]c2ccccc12)C(=O)O` (H-WFFNYYW-OH) were, in that order, 15 µM and 2.4 µM.
`C[C@H](NC(=O)[C@@H](NC(=O)CNC(=O)[C@H](Cc1c[nH]cn1)NC(=O)[C@@H](N)Cc1c[nH]c2ccccc12)[C@@H](C)O)C(=O)N1CCC[C@H]1C(=O)N[C@@H](CC(=O)O)C(=O)N[C@@H](Cc1c[nH]c2ccccc12)C(=O)N[C@@H](Cc1ccccc1)C(=O)N[C@@H](Cc1ccccc1)C(=O)N[C@@H](CC(N)=O)C(=O)N[C@@H](Cc1ccc(O)cc1)C(=O)N[C@@H](Cc1ccc(O)cc1)C(=O)N[C@@H](Cc1c[nH]c2ccccc12)C(=O)O` (H-WHGTAPDWFFNYYW-OH): the 50% inhibitory concentration (IC50) (in assay [1]; at Endothelin-1 receptor) was over 2.5 µM throughout.
Regarding `NC(=O)C[C@H](NC(=O)[C@H](Cc1ccccc1)NC(=O)[C@@H](N)C1c2ccccc2CCc2ccccc21)C(=O)N[C@@H](Cc1ccc(O)cc1)C(=O)N[C@@H](Cc1ccc(O)cc1)C(=O)N[C@@H](Cc1c[nH]c2ccccc12)C(=O)O` (H-[X1]FNYYW-OH), the figures for the IC50 (in assay [1]; at Endothelin-1 receptor) were 13 µM and 9.5 µM, respectively.
On to `C[C@@H]1NC(=O)[C@H]([C@@H](C)O)NC(=O)CNC(=O)[C@H](Cc2c[nH]cn2)NC(=O)[C@H](Cc2c[nH]c3ccccc23)NC(=O)[C@H](CC(N)=O)NC(=O)CNC(=O)C[C@@H](C(=O)N[C@@H](Cc2c[nH]c3ccccc23)C(=O)N[C@@H](Cc2ccccc2)C(=O)N[C@@H](Cc2ccccc2)C(=O)N[C@@H](CC(N)=O)C(=O)N[C@@H](Cc2ccc(O)cc2)C(=O)N[C@@H](Cc2ccc(O)cc2)C(=O)N[C@@H](Cc2c[nH]c3ccccc23)C(=O)O)NC(=O)[C@@H]2CCCN2C1=O` (stereo in doubt; 1), for which the results for the IC50 (in assay [1]; on Endothelin-1 receptor) were 0.01 µM and over 5 µM, respectively.
Consider `C[C@@H]1NC(=O)[C@H]([C@@H](C)O)NC(=O)CNC(=O)[C@H](Cc2c[nH]cn2)NC(=O)[C@H](Cc2c[nH]c3ccccc23)NC(=O)[C@H](CC(N)=O)NC(=O)CNC(=O)C[C@@H](C(=O)N[C@@H](Cc2c[nH]c3ccccc23)C(=O)N[C@@H](Cc2ccccc2)C(=O)N[C@@H](Cc2ccccc2)C(=O)N[C@@H](CC(N)=O)C(=O)N[C@@H](Cc2ccc(O)cc2)C(=O)N[C@@H](Cc2ccc(O)cc2)C(=O)N[C@@H](Cc2c[nH]c3ccccc23)C(=O)O)NC(=O)[C@@H]2CCCN2C1=O` (stereo in doubt; 2), for which the IC50 in assay [1] is 6.5 µM; on Endothelin-1 receptor, 7.8 µM.

The record behind these values is ChEMBL document CHEMBL1152094, “Res-701-1, synthesis and a reevaluation of its effects on the endothelin receptors” (Bioorg Med Chem Lett, 1995).
